Reference: US9493448B2, “Cycloalkane derivatives” (Daiichi Sankyo Company, Limited, priority 2012, dated 2016)

Legend:
[1] = target: hNav 1.7 (Homo sapiens (Human), UniProt Q15858); assay: Electrophysiological evaluation, automated patch clamp IonWorks Quattro (Population Patch Clamp mode); assay type: cell-based; conditions: HEK293A cells stably expressing hNav 1.7/β1/β2; response to second depolarization pulse, pre-pulse potential set to V1/2; read-out: hNav1.7 IC50
[2] = tested on: mice and rats affected by thermal hyperalgesia; assay: Thermal hyperalgesia assay; assay type: in vivo; conditions: oral administration, constant dose, against the vehicle treatment group; latency to escape behaviors after thermal stimulation of hind paw;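 note: measurement times set by the study director and not disclosed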

Chain of hNav 1.7 (Q15858 whole entry): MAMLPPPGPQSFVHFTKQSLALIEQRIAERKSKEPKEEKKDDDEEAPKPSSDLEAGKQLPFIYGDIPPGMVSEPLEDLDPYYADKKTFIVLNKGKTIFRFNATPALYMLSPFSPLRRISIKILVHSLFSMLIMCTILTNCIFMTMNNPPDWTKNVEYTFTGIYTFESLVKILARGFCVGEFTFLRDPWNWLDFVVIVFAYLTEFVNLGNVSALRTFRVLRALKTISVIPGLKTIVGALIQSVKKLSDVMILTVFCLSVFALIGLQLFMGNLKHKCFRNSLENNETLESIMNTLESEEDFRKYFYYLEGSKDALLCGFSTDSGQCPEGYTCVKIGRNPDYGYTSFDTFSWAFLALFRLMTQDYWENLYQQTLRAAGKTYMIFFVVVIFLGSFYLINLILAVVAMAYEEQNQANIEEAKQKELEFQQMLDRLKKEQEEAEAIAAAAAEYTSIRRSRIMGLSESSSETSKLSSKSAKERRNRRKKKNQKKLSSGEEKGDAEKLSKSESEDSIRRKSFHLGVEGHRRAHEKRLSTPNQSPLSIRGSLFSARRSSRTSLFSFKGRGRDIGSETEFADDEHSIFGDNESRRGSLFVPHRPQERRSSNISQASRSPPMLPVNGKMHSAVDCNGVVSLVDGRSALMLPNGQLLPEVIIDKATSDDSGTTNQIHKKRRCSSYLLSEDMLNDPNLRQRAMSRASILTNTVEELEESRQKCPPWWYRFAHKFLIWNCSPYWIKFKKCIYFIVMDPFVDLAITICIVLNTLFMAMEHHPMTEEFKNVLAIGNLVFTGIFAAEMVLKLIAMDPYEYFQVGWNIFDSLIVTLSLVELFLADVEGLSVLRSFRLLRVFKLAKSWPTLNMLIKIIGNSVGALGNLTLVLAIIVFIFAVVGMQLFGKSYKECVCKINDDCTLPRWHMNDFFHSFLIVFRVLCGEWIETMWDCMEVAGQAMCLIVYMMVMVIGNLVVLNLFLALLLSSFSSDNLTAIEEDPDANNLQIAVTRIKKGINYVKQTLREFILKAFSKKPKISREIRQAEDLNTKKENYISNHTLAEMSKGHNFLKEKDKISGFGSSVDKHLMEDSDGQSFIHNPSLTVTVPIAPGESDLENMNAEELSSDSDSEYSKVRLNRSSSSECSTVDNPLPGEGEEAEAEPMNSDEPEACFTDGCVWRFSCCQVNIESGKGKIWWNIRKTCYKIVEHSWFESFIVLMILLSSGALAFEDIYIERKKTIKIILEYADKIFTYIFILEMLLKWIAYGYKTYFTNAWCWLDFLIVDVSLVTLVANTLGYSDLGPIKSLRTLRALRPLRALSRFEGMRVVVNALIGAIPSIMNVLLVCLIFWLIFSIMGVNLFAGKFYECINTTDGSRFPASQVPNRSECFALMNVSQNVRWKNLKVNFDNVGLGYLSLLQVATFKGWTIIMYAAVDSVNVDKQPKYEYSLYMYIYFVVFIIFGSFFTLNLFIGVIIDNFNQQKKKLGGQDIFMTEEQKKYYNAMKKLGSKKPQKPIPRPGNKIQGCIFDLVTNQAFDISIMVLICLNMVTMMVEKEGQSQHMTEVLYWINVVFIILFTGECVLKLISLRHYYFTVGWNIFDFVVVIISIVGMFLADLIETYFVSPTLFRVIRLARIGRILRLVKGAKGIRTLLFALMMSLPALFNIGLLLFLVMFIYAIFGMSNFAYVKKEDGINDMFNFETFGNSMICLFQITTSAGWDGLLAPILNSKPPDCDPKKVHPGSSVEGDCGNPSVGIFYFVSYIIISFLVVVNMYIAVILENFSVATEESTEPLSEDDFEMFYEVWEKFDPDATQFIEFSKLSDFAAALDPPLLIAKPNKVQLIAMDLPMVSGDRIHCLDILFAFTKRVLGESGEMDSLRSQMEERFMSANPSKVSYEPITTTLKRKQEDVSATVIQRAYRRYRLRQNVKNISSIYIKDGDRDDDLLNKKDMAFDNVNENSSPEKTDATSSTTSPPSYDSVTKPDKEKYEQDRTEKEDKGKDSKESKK
Chain of hNav 1.7 (Q07699 19-218 partner): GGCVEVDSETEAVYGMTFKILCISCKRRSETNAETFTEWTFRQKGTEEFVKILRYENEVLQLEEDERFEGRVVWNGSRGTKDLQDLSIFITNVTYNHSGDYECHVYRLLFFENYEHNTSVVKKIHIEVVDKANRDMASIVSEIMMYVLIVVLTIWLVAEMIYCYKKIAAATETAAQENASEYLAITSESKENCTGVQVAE
Chain of hNav 1.7 (O60939 30-215 partner): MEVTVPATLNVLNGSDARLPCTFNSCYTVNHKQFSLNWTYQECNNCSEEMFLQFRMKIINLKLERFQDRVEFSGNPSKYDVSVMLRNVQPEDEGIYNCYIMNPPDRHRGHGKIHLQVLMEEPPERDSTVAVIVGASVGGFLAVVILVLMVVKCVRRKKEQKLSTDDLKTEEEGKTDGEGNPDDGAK

| IC50 [1] [nM] | Structure (SMILES) | Ratio of improving pain score (%) [2] |
| --- | --- | --- |
| 87 | Nc1ncccc1[C@H]1CCCC[C@@H]1Oc1cc(F)c(S(=O)(=O)Nc2ccncn2)cc1F (relative stereo) [Example 69, 4-{[(1S*,2R*)-2-(2-Aminopyridin-3-yl)cyclohexyl]oxy}-2,5-difluoro-N-(pyrimidin-4-yl)benzenesulfonamide] | B (“B” when the rate was 31 to 60%) |
| 170 | Cc1cc(S(=O)(=O)Nc2ccncn2)c(F)cc1O[C@H]1CCC[C@@H]1c1c[nH]nc1N (relative stereo) [Example 85, 4-{[(1S*,2R*)-2-(3-Amino-1H-pyrazol-4-yl)cyclopentyl]oxy}-2-fluoro-5-methyl-N-(pyrimidin-4-yl)benzenesulfonamide] | B (“B” when the rate was 31 to 60%) |
| 86 | Cc1cc(S(=O)(=O)Nc2ccncn2)c(F)cc1O[C@H]1CCCC[C@@H]1c1c[nH]nc1N (relative stereo) [Example 68, 4-{[(1S*,2R*)-2-(3-Amino-1H-pyrazol-4-yl)cyclohexyl]oxy}-2-fluoro-5-methyl-N-(pyrimidin-4-yl)benzenesulfonamide] | B (“B” when the rate was 31 to 60%) |
| 150 | Nc1n[nH]cc1[C@H]1CCCC[C@@H]1Oc1cc(F)c(S(=O)(=O)Nc2ccncn2)cc1Cl (relative stereo) [Example 71, 4-{[(1S*,2R*)-2-(3-Amino-1H-pyrazol-4-yl)cyclohexyl]oxy}-5-chloro-2-fluoro-N-(pyrimidin-4-yl)benzenesulfonamide] | A (“A” when the rate was 61 to 100%) |
| 34 | O=S(=O)(Nc1ccncn1)c1cc(Cl)c(O[C@H]2CCC[C@@H]2c2ccn[nH]2)cc1F (relative stereo) [Example 140, 5-Chloro-2-fluoro-4-{[(1S*,2R*)-2-(1H-pyrazol-5-yl)cyclopentyl]oxy}-N-(pyrimidin-4-yl)benzenesulfonamide] | B (“B” when the rate was 31 to 60%) |
| 57 | Cc1cc(S(=O)(=O)Nc2ccncn2)c(F)cc1O[C@H]1CC(F)(F)C[C@@H]1c1ccnn1C (relative stereo) [Example 133, 4-{[(1S*,2R*)-4,4-Difluoro-2-(1-methyl-1H-pyrazol-5-yl)cyclopentyl]oxy}-2-fluoro-5-methyl-N-(pyrimidin-4-yl)benzenesulfonamide] | A (“A” when the rate was 61 to 100%) |
| 24 | Cc1cc(S(=O)(=O)Nc2ccncn2)c(F)cc1O[C@H]1CCC[C@@H]1c1ccn[nH]1 (relative stereo) [Example 138, 2-Fluoro-5-methyl-4-{[(1S*,2R*)-2-(1H-pyrazol-5-yl)cyclopentyl]oxy}-N-(pyrimidin-4-yl)benzenesulfonamide] | B (“B” when the rate was 31 to 60%) |
| 320 | O=S(=O)(Nc1ccncn1)c1cc(F)c(O[C@H]2CC(F)(F)CC[C@@H]2c2cn[nH]c2)cc1F (relative stereo) [Example 103, 4-{[(1S*,2R*)-5,5-Difluoro-2-(1H-pyrazol-4-yl)cyclohexyl]oxy}-2,5-difluoro-N-(pyrimidin-4-yl)benzenesulfonamide] | B (“B” when the rate was 31 to 60%) |
| 250 | CC(=O)Nc1n[nH]cc1[C@H]1CCCC[C@@H]1Oc1cc(F)c(S(=O)(=O)Nc2ccncn2)cc1C (relative stereo) [Example 96, N-(4-{(1R*,2S*)-2-[5-fluoro-2-methyl-4-((pyrimidin-4-yl)sulfamoyl)phenoxy]cyclohexyl}-1H-pyrazol-3-yl)acetamide] | A (“A” when the rate was 61 to 100%) |
| 180 | Cc1cc(S(=O)(=O)Nc2ccncn2)c(F)cc1O[C@H]1CCC[C@@H]1c1cn[nH]c1 (relative stereo) [Example 101, 2-Fluoro-5-methyl-4-{[(1S*,2R*)-2-(1H-pyrazol-4-yl)cyclopentyl]oxy}-N-(pyrimidin-4-yl)benzenesulfonamide] | B (“B” when the rate was 31 to 60%) |
| 91 | Cn1nccc1[C@H]1CCCCC[C@@H]1Oc1cc(F)c(S(=O)(=O)Nc2ccncn2)cc1F (relative stereo) [Example 42, 2,5-Difluoro-4-{[(1S*,2R*)-2-(1-methyl-1H-pyrazol-5-yl)cycloheptyl]oxy}-N-(pyrimidin-4-yl)benzenesulfonamide] | C (“C” when the rate was 0 to 30%) |

Continued, compound first:

| Structure (SMILES) | IC50 [1] [nM] | Ratio of improving pain score (%) [2] |
| --- | --- | --- |
| Cn1nccc1[C@H]1CCC[C@@H]1Oc1ccc(S(=O)(=O)Nc2ccncn2)c(F)c1Cl (relative stereo) [Example 80, 3-Chloro-2-fluoro-4-{[(1S*,2R*)-2-(1-methyl-1H-pyrazol-5-yl)cyclopentyl]oxy}-N-(pyrimidin-4-yl)benzenesulfonamide] | 86 | C (“C” when the rate was 0 to 30%) |
| Cn1nccc1[C@H]1CC(F)(F)C[C@@H]1Oc1ccc(S(=O)(=O)Nc2ccncn2)c(F)c1 (relative stereo) [Example 136, 4-{[(1S*,2R*)-4,4-Difluoro-2-(1-methyl-1H-pyrazol-5-yl)cyclopentyl]oxy}-2-fluoro-N-(pyrimidin-4-yl)benzenesulfonamide] | 290 | B (“B” when the rate was 31 to 60%) |
| CCn1nccc1[C@@H]1CCC[C@H]1Oc1ccc(S(=O)(=O)Nc2ccncn2)c(F)c1F [Example 118, 4-{[(1R,2S)-2-(1-Ethyl-1H-pyrazol-5-yl)cyclopentyl]oxy}-2,3-difluoro-N-(pyrimidin-4-yl)benzenesulfonamide] | 21000 | A (“A” when the rate was 61 to 100%) |
| Cn1nccc1[C@H]1CC(C)(C)CC[C@@H]1Oc1cc(F)c(S(=O)(=O)Nc2ccncn2)cc1F (relative stereo) [Example 67, 4-{[(1S*,2R*)-4,4-Dimethyl-2-(1-methyl-1H-pyrazol-5-yl)cyclohexyl]oxy}-2,5-difluoro-N-(pyrimidin-4-yl)benzenesulfonamide] | 43 | C (“C” when the rate was 0 to 30%) |
| Cn1nccc1[C@H]1CCC[C@@H]1Oc1cc(F)c(S(=O)(=O)Nc2nncs2)cc1Cl (relative stereo) [Example 87, 5-Chloro-2-fluoro-4-{[(1S*,2R*)-2-(1-methyl-1H-pyrazol-5-yl)cyclopentyl]oxy}-N-(1,3,4-thiadiazol-2-yl)benzenesulfonamide] | 280 | B (“B” when the rate was 31 to 60%) |
| Cn1nccc1[C@H]1CC(F)(F)CC[C@@H]1Oc1cc(F)c(S(=O)(=O)Nc2ccncn2)cc1F (relative stereo) [Example 88, 4-{[(1S*,2R*)-4,4-Difluoro-2-(1-methyl-1H-pyrazol-5-yl)cyclohexyl]oxy}-2,5-difluoro-N-(pyrimidin-4-yl)benzenesulfonamide] | 320 | C (“C” when the rate was 0 to 30%) |
| O=S(=O)(Nc1ccncn1)c1c(F)cc(O[C@H]2CCC[C@@H]2c2ccn[nH]2)cc1F (relative stereo) [Example 139, 2,6-Difluoro-4-{[(1S*,2R*)-2-(1H-pyrazol-5-yl)cyclopentyl]oxy}-N-(pyrimidin-4-yl)benzenesulfonamide] | 35 | C (“C” when the rate was 0 to 30%) |
| Cn1nccc1[C@H]1CC(C)(C)C[C@@H]1Oc1cc(F)c(S(=O)(=O)Nc2ccncn2)cc1F (relative stereo) [Example 93, 4-{[(1S*,2R*)-4,4-Dimethyl-2-(1-methyl-1H-pyrazol-5-yl)cyclopentyl]oxy}-2,5-difluoro-N-(pyrimidin-4-yl)benzenesulfonamide] | 65 | B (“B” when the rate was 31 to 60%) |
| Cn1nccc1[C@H]1CCCC[C@@H]1Oc1ccc(S(=O)(=O)Nc2ccncn2)c(F)c1 (relative stereo) [Example 44, 2-Fluoro-4-{[(1S*,2R*)-2-(1-methyl-1H-pyrazol-5-yl)cyclohexyl]oxy}-N-(pyrimidin-4-yl)benzenesulfonamide] | 330 | C (“C” when the rate was 0 to 30%) |
| Cn1nccc1[C@H]1CCC[C@@H]1Oc1ccc(S(=O)(=O)Nc2ccncn2)c(F)c1 (relative stereo) [Example 29, 2-Fluoro-4-{[(1S*,2R*)-2-(1-methyl-1H-pyrazol-5-yl)cyclopentyl]oxy}-N-(pyrimidin-4-yl)benzenesulfonamide] | 1800 | A (“A” when the rate was 61 to 100%) |
| Cn1nccc1[C@H]1CCCCC[C@@H]1Oc1ccc(S(=O)(=O)Nc2ccncn2)c(F)c1 (relative stereo) [Example 58, 2-Fluoro-4-{[(1S*,2R*)-2-(1-methyl-1H-pyrazol-5-yl)cycloheptyl]oxy}-N-(pyrimidin-4-yl)benzenesulfonamide] | 660 | B (“B” when the rate was 31 to 60%) |
| Cc1c(O[C@H]2CC(F)(F)CC[C@@H]2c2ccnn2C)ccc(S(=O)(=O)Nc2ccncn2)c1F (relative stereo) [Example 84, 4-{[(1S*,2R*)-5,5-Difluoro-2-(1-methyl-1H-pyrazol-5-yl)cyclohexyl]oxy}-2-fluoro-3-methyl-N-(pyrimidin-4-yl)benzenesulfonamide] | 36 | B (“B” when the rate was 31 to 60%) |
| Cn1nccc1[C@H]1CCC(F)(F)C[C@@H]1Oc1cc(F)c(S(=O)(=O)Nc2ccncn2)cc1F (relative stereo) [Example 47, 4-{[(1S*,2R*)-5,5-Difluoro-2-(1-methyl-1H-pyrazol-5-yl)cyclohexyl]oxy}-2,5-difluoro-N-(pyrimidin-4-yl)benzenesulfonamide] | 120 | A (“A” when the rate was 61 to 100%) |
| Cc1cc(S(=O)(=O)Nc2ccncn2)ccc1O[C@H]1CCCCC[C@@H]1c1ccnn1C (relative stereo) [Example 57, 3-Methyl-4-{[(1S*,2R*)-2-(1-methyl-1H-pyrazol-5-yl)cycloheptyl]oxy}-N-(pyrimidin-4-yl)benzenesulfonamide] | 75 | B (“B” when the rate was 31 to 60%) |
